Values quoted from earlier work in patent publication US20240350654A1, “NANOCARRIERS FOR TARGETED DELIVERY OF THERAPEUTICS” (Northwestern University, priority 2023, published 2024).

Settings: humans, approximation

CO[C@@H]1[C@H](N(C)C(=O)c2ccccc2)C[C@H]2O[C@]1(C)n1c3ccccc3c3c4c(c5c6ccccc6n2c5c31)C(=O)NC4 [midostaurin]
total peak blood concentration of midostaurin and its active metabolites: 2.16 µg/mL
